The source made the active and inactive calls.
Experiments:
[1] = system: H9c2; test: cells; type: functional, cell-based; conditions: Rattus norvegicus, H9c2, Myocardium;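 note: confirmatory concentration-response retest of ultra-high-throughput screening hits for modulation of myocardial damage; cell death induced by hydrogen peroxide oxidative stress; compound pretreatment for 60 min then peroxide exposure for 2 h; potency is for protecting the cells against peroxide damage rather than for killing them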
[2] = microbe, parasite or virus in culture; type: functional; conditions: Mycobacterium tuberculosis
[3] = molecular target: T1, Corticotropin-releasing factor receptor 2/Corticotropin-releasing factor-binding protein (Homo sapiens, UniProt P24387+Q13324); test: Dose Response confirmation of uHTS hits for small molecule antagonists of the CRF-binding protein and CRF-R2 receptor complex.; type: functional; conditions: read-out: IC50_Mean
T1 sequence (Q13324 whole entry): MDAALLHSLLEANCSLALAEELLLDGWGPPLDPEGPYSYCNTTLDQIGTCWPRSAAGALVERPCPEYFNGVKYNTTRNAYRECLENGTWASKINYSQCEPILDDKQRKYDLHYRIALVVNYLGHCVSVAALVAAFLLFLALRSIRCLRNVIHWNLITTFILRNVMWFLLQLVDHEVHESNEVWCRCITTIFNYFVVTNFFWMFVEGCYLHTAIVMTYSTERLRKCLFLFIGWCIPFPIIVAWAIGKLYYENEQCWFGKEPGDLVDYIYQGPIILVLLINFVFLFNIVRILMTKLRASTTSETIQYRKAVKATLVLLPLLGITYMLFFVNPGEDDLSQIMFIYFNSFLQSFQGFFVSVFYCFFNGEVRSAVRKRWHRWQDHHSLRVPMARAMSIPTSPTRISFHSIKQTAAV
T1 sequence (P24387 whole entry): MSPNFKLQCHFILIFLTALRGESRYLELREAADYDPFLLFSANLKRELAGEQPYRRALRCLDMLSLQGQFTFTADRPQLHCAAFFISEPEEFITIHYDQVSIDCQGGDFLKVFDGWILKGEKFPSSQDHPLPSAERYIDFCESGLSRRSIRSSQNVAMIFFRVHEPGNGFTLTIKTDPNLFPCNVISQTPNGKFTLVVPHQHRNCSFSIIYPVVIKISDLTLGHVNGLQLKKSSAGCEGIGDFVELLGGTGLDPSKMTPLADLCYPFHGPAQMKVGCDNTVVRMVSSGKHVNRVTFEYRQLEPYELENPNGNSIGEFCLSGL

[4] = molecular target: T1, Corticotropin-releasing factor receptor 2/Corticotropin-releasing factor-binding protein; test: activators of CRF receptor 2 with binding protein – uHTS hits, confirmation (AID 602473); type: functional; conditions: read-out: EC50_Mean
[5] = molecular target: FAD-linked sulfhydryl oxidase ALR (Homo sapiens, UniProt P55789); test: ALR-catalysed DTT oxidation blockers – biochemical, H2O2 detection, luminescence, cherry-pick, dose response (AID 493248)
FAD-linked sulfhydryl oxidase ALR, sequence (P55789 whole entry): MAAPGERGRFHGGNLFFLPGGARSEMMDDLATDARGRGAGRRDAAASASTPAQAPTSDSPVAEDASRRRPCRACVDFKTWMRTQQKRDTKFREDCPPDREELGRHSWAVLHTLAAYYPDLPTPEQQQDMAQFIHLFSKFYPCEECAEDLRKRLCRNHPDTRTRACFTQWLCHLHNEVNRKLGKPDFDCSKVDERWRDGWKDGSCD

[6] = molecular target: T2, High affinity choline transporter 1 (Homo sapiens, UniProt Q9GZV3); test: human choline transporter blockers, potency – cell-based, 5-point CRC, membrane potential dye, dose response (AID 504840); type: functional
T2 sequence (Q9GZV3 whole entry): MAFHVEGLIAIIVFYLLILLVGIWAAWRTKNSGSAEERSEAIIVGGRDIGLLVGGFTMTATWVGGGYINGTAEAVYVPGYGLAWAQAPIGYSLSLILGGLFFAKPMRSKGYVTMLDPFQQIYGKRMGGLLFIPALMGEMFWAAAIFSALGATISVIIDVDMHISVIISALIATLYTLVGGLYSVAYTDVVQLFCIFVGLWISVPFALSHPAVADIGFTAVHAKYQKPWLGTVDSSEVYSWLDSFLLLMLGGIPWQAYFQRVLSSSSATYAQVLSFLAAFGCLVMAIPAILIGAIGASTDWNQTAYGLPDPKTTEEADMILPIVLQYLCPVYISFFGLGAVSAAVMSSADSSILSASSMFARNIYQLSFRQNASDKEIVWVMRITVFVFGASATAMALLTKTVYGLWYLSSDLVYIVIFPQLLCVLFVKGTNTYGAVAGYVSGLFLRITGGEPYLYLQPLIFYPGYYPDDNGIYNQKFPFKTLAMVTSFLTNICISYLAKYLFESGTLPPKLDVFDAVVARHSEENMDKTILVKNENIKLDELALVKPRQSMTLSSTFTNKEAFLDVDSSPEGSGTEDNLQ

[7] = molecular target: T3, Polyadenylate-binding protein 1 (Homo sapiens, UniProt P11940); test: MLLE domain peptide-binding blockers, IC50 – biochemical, fluorescence polarization, FITC-PAM2 peptide, dose response (AID 602259); type: functional; conditions: read-out: IC50_Mean
T3 sequence (P11940 whole entry, the tested form may be a part): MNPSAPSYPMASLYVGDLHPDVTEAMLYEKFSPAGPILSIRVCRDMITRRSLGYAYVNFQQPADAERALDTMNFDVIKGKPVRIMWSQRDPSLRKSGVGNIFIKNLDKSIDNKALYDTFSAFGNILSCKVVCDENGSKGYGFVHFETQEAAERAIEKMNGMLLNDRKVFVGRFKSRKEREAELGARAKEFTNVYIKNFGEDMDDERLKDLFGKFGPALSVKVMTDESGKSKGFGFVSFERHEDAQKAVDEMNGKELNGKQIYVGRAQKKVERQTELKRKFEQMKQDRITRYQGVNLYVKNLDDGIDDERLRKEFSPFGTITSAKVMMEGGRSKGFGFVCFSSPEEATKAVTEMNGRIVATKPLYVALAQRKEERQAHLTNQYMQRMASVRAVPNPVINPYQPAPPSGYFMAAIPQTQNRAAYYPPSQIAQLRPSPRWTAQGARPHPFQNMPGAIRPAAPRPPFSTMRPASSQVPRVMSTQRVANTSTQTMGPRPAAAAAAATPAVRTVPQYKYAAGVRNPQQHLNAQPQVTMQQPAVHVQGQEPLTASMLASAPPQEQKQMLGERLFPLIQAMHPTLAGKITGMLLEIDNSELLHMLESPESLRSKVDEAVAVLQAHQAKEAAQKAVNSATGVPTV

[8] = molecular target: T3, Polyadenylate-binding protein 1; test: MLLE binding blockers, Cy5 peptide tracer – biochemical, fluorescence polarization, Cy5-PAM2 peptide, secondary, miRNA deadenylation inhibitor project, dose response (AID 602260); type: functional; conditions: read-out: IC50_Mean
[9] = A549 cell cytotoxicity, dose response, cytotoxicity control, plate reader, cherry-pick, antagonist series (AID 743412); type: functional, cell-based
[10] = blockers of bursicon-stimulated LGR2 cAMP reporter – cell-based, HEK293, CRE-luciferase reporter, cherry pick, set 2, dose response (AID 743343); type: functional;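 note: transfected cells were stimulated with diluted bursicon conditioned medium after compound addition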
[11] = blockade of melanocortin 4 receptor signaling – cell-based, plate reader, cherry pick, counter-screen for LGR2 antagonist project, dose response (AID 743444); type: functional;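 note: transfected HEK 293 cells stimulated with alpha-MSH peptide; potency of inhibitors of the alpha-MSH evoked signal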
[12] = viability loss in HEK293 cells – cell-based, plate reader, cherry-picked samples, cytotoxicity control, dose response (AID 743446); type: functional
[13] = toxicity toward HepG2 liver cells – cell-based, plate reader, cherry-pick, antagonist series, cytotoxicity control, dose response (AID 743416); type: functional
[14] = DRD fibroblast viability loss – cell-based, non-viral oncogenic, luminescence, dose response (AID 1934); type: functional; conditions: Homo sapiens
[15] = system: BJ; test: cells; type: functional, cell-based; conditions: Homo sapiens
[16] = system: BJ; test: BJ-TERT fibroblast viability loss – cell-based, RAS-independent, luminescence, dose response (AID 1933); type: functional; conditions: Homo sapiens
[17] = system: BJ; test: BJ-TERT-LT-ST fibroblast viability loss – cell-based, RAS-independent, luminescence, dose response (AID 1935); type: functional; conditions: Homo sapiens;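 note: BJ fibroblasts immortalized with TERT plus LT and ST oncogenes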
[18] = molecular target: Paired box protein Pax-8 (Homo sapiens, UniProt Q06710); test: PAX8 transcriptional activity inhibition in RMG-I – RMG-I cells, luciferase, cherry-pick, dose response (AID 687027); type: functional, cell-based;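 note: luciferase reporter driven by Pax8 target thyroperoxidase promoter measured by SteadyGlo luminescence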
Paired box protein Pax-8, sequence (Q06710 whole entry): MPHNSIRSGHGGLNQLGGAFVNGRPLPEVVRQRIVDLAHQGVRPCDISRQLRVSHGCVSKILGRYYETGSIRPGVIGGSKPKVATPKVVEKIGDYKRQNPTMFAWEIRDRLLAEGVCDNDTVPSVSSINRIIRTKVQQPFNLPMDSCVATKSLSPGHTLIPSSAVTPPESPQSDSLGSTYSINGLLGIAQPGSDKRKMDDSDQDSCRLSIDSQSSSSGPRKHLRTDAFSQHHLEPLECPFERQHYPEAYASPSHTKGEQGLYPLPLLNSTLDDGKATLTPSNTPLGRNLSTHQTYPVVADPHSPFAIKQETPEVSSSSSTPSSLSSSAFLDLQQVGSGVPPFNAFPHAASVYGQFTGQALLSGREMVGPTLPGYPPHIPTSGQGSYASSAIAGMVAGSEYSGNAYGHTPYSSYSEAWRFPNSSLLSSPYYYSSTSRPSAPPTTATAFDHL

[19] = Trypanosoma cruzi growth suppression in host cells – NIH3T3 host cells, beta-gal luminescence, confirmation (AID 2044); type: functional, cell-based;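 note: intracellular parasites grown in NIH/3T3 mouse fibroblasts as host cells; luminescent beta-galactosidase reporter signal from transgenic T. cruzi replicating inside host cells; inhibitors lower the luminescence signal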
[20] = NIH3T3 cell viability loss – ATP luminescence, mouse fibroblasts, counter-screen, dose response (AID 2010); type: functional, cell-based;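 note: cells exposed to compound for about 90 hours before reading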
[21] = system: INS1; test: INS-1E survival protection against cytokine death – cell-based, luminescence, retest, dose response (AID 449756); type: functional; conditions: Rattus norvegicus;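 note: cell death triggered by IL-1 beta plus TNF-alpha plus IFN-gamma mixture; protective hits raise ATP signal compared with cytokine alone wells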

SMILES: Cc1cccc(NC(=O)c2oc3ccc(S(=O)(=O)N4CCOCC4)cc3c2C)c1C
- IC50 [1]: > 79 µM (inactive)

SMILES: O=C(CCl)Nc1nccs1
- CC50 [2]: 13.7 µM (active)
- IC50 [3]: > 47.1 µM (inactive)
- EC50 [4]: > 53 µM (inactive)

SMILES: COc1ccc(OC)c(C2C(C#N)=C(N)Oc3cc(N)ccc32)c1 (configuration not stated)
- AC50 [5]: 3.1 µM (active)

SMILES: CC1(C(=O)N2CCC(CC3CC(c4ccc(Cl)cc4)=NO3)(C(=O)NCC3CCCCC3)CC2)CC1 (configuration not stated)
- IC50 [6]: 6.92 µM (active)

SMILES: CCO/C(O)=C1/Sc2cc(C)ccc2N=C1C
- IC50 [7]: > 66 µM (inactive)
- IC50 [8]: > 66 µM (inactive)

SMILES: O=C(c1ccc(O)cc1)c1ccc(Cl)cc1
- IC50 [6]: 11 µM (active)

SMILES: CN(C)c1ccc(/C=N/NC(=O)c2ccccn2)cc1
- AC50 [5]: 35.5 µM (active)

SMILES: Cc1ccc(N=C(S)C2=C(O)c3ccccc3N(C)S2(=O)=O)cc1
- IC50 [7]: > 66 µM (inactive)
- IC50 [8]: > 66 µM (inactive)

SMILES: COc1ccccc1N/C=C/c1onc(C)c1[N+](=O)[O-]
- AC50 [9]: > 52 µM (inactive)
- AC50 [10]: 3.4 µM (active)
- AC50 [11]: 4.75 µM (active)

SMILES: CC(Oc1ccccc1Cl)C(=O)Nc1ccc(S(=O)(=O)N2CCN(C)CC2)cc1 (configuration not stated)
- IC50 [7]: > 66 µM (inactive)
- IC50 [8]: > 66 µM (inactive)

SMILES: Cc1ccc(/C=C(\NC(=O)c2ccc(C)cc2)c2n[nH]c(S)n2)cc1
- CC50 [2]: > 40 µM (active)

SMILES: Cc1ccc(S(=O)(=O)Nc2ccc3c(c2)CC(=O)N([C@H](C)CO)C[C@@H](C)[C@H](CN(C)Cc2ccc(C(F)(F)F)cc2)O3)cc1
- AC50 [9]: 8.46 µM (active)
- AC50 [10]: 21.6 µM (active)
- AC50 [11]: 14.1 µM (active)
- AC50 [12]: 17.8 µM (active)
- AC50 [13]: 10.5 µM (active)

SMILES: O=C(CCc1nc(O)c2ccccc2n1)N1CCN(c2ccccc2Cl)CC1
- IC50 [1]: > 79 µM (inactive)

SMILES: Cc1cc(C)c2c(NC(=O)CCl)nn(C)c2n1
- EC50 [14]: 29.2 µM (active)
- EC50 [15]: > 150 µM (not active)
- EC50 [16]: 28.7 µM (active)
- EC50 [17]: > 150 µM (inconclusive)

SMILES: CCOC(=O)CC1(CC(=O)OCC)NC(=O)c2c(C)sc(C(=O)OCC)c2N1
- IC50 [6]: 13.8 µM (active)

SMILES: Cc1noc(C)c1S(=O)(=O)N(C)C[C@@H]1OCCCC[C@H](C)Oc2ccc(NS(=O)(=O)c3ccc(Cl)cc3)cc2C(=O)N([C@H](C)CO)C[C@@H]1C
- AC50 [18]: 10.4 µM (active)

SMILES: Cc1cc(NS(=O)(=O)c2ccc(NC(=S)NC(=O)c3ccc(F)cc3)cc2)no1
- IC50 [7]: > 66 µM (inactive)
- IC50 [8]: > 66 µM (inactive)

SMILES: CC(OC(=O)Cc1nnc(O)c2ccccc12)C(=O)Nc1ccc(F)cc1 (configuration not stated)
- IC50 [1]: > 79 µM (inactive)

SMILES: CCn1c(-c2ccc(N(C)C)cc2)nc2ccccc21
- EC50 [19]: 1.67 µM (active)
- EC50 [20]: > 60 µM (not active)
- AC50 [21]: 4.25 µM (active)
- AC50 [5]: 1.48 µM (active)

Source: ChEMBL document CHEMBL1201862, “PubChem BioAssay data set” (2004)
